Measured values from patent US7163935B2, “Scorpionate-like pendant macrocyclic ligands, complexes and compositions thereof, and methods of using same” (The United States of America as represented by the …, priority 2002, dated 2007).

Assay: Complexation (formation) kinetics with Y(III), competing reaction with Arsenazo III, absorbance at 652 nm
Type: physicochemical
Conditions: pH 4, room temperature
Method: Formation kinetics of Y(III) complexes of 1, 2, and DOTA (Macrocyclics) was measured by monitoring the absorption at 652 nm. To 2 mL of 1.6 mM YCl3 (from atomic absorption standard solution, Aldrich) and 5 mM Arsenazo III (Sigma) in 0.15 M NH4OAc (pH 4.0, metal-free), 20 μL of 10 mM ligand solution were added into a cell. After mixing (<5 sec), absorption of the solution at 652 nm (absorption wavelength of Y(III)-Arsenazo III) (Kline et al., Bioconjugate Chem., 1991, 2,26–31) was immediately followed over time at room temperature using an HP 8452A Diode Array Spectrophotometer, which was pre-blanked with a 5 mM Arsernazo III solution. Without any ligand added, the absorption was 0.089 for 1.6 mM YCl3 in 5 mM Arsernazo III solution at 652 nm.
The complexation kinetics of novel chelates 1, 2, and DOTA with Y(III) was qualitatively investigated using a competing reaction with Arsenazo III according to a modification of a previously reported procedure (Kodama et al., Inorg. Chem., 1991, 30, 1270–1273). The absorbance (A652) for the Y(III)-Arsenazo III complex was measured in the absence and in the presence of the chelates (1, 2, and DOTA) over 1 h. The results are shown in FIG. 3, which is a line graph of absorbance at 652 nm vs. reaction time (s), in which curve “a” represents Y-2, curve “b” represents Y-DOTA, and curve “c” represents Y-1. […] Complexation of Y(III) by 2 is assumed to occur to some degree, but the formed complex might undergo decomplexation due to an absence of complex stability, ultimately leading to an unfavorable equilibrium situation.

[1] = Arsenazo III competition, A652 over 1 h

Compound	complex formation with Y(III) (rate) [1]	rate of complex formation with Y(III) compared to DOTA (time scan measurements)	degree of complexation of Y(III) [1]
O=C(O)CN1CCN(CC(=O)O)CCN(CC(=O)O)CCN(CC(=O)O)CC1 [DOTA, 1,4,7,10-tetraazacyclododecane-N,N′,N″,N′″-tetraacetic acid, reference compound]	sluggish		
Cl.Cl.Cl.Cl.O=C(O)CN1CCN(CCN(CC(=O)O)CC(=O)O)CCN(CC(=O)O)CC1 [ligand 1, {[2-(4,7-bis-carboxymethyl)-[1,4,7]triazacyclononan-1-yl-ethyl]-carbonylmethyl-amino]-acetic acid tetrahydrochloride]	quite rapid and is essentially complete very shortly after the starting point of measurement	much greater rate than DOTA	
Cl.Cl.Cl.Cl.O=C(O)CN1CCN(CCCN(CC(=O)O)CC(=O)O)CCN(CC(=O)O)CC1 [ligand 2, {[3-(4,7-bis-carboxymethyl)-[1,4,7]triazacyclononan-1-yl-propyl]-carbonyl-methylamino]-acetic acid tetrahydrochloride]	very slow		slight and remained unchanged over the period of measurement
